Columns and labels:
PDCs = test: Tumor sphere formation assay; type: cell-based, human
Protocol: For the tumor sphere formation assay, cells were inoculated in 96-well plates at 600 cells/well in a volume of 100 μL. The tumor spheres with a diameter of 50–100 μm and a diameter of over 100 μm were counted separately under a microscope after 14 days. For the limiting dilution assay, cells were dissociated to generate a single-cell suspension, which was diluted along a gradient for seeding in a 96-well plate at concentrations ranging from 400 cells to 25 cells in a volume of 100 μL per well.

[1] = test system: intracranial orthotopic glioma PDX; test: Intracranial orthotopic PDX model (GBM2); type: in vivo, NSG mice; settings: 1 mg/kg i.v. daily for 10 days
Protocol: Fig. 3 The inhibitory effects of GA-amide in glioma stem cell-derived mouse models and transgenic mouse models. a, b GSC2 cells were implanted s.c. into nude mice. Mice were treated with control (DMSO) (n = 7) or GA-amide (2 mg/kg) (n = 8) via i.p. injection once daily for 11 days, after which a photograph (a) was taken to show the tumor volume, and the tumor volume was calculated by a modified ellipsoid formula in (b). c, d GSC2 cells were implanted intracranially into nude mice. Mice were injected i.v. with control (n = 8) or 1 mg/kg GA-amide (n = 8) daily for 13 days, the Mantel‒Cox log–rank test was used for analysis, and the relative survival curves are shown in (c). The body weights are shown in (d). e In vivo efficacy studies of GA-amide using transgenic mouse models. Glioma was induced in transgenic C57BL/6 mice by injection of pTomo-Ras-sip53 lentivirus, and the strategy is shown. f, g MRI analysis was used to group mice into the control (n = 7) and GA-amide-treated groups (n = 8) before treatment. […]
For the intracranial PDX model, the tumor tissue (GBM2) will be mechanically minced using scissors and then […] NSG mice (Male, 6–8 weeks). […] After 7 days of tumor development, the mice were grouped dependent on the tumor size measured by MRI. […] After treatment, the tumor size was measured by MRI again.

[2] = test system: TMZ-resistant cells (T2-4, GSC2 and T12-1); test: Time curve cell viability assay (MTS); type: cell-based; settings: PDCs and GSCs
Protocol: Fig. 2 The BBB permeability and tumor suppressor ability of GA-amide compared with TMZ. GA-amide (a) or TMZ (b) concentration in the tumor area and normal brain tissue following a single injection of GA-amide (10 mg/kg, i.v.) or TMZ (10 mg/kg, i.v.). The data are presented as the means ± SEMs (n = 3). c Western blot analysis of the expression of TrkA in mouse tumor tissues (T) and normal brain tissues (N), n = 4. d Western blot analysis of glycosylated TrkA expression in human normal brain tissues (N) and glioma tissues of different grades. e Time curve of GA-amide and TMZ treatment in a cell viability assay (MTS) in T2-4, GSC2 and T12-1 cells. f–h A PDX mouse model was established, and the mice were treated with vehicle (control, n = 9), 2 mg/kg GA-amide (n = 9), 2 mg/kg GAC (n = 9) or […] TMZ (n = 8) by i.p. injection daily for 10 days. A summary photograph is presented in (f), statistical results in (g) and the body weights of mice in (h); the mean ± SEMs are shown. n.s: P ≥ 0.05, *P < 0.05, **P < 0.01 and ***P < 0.001 compared with the control group by one-way ANOVA at each time point

F-actin = F-actin staining and G-actin/F-actin assay in T2-4 cells; type: cell-based; settings: 0.3 μM, 4 h, 8 h and 12 h
Protocol: F-actin isolation was performed according to the instructions of the G-actin/F-actin assay (Cytoskeleton, Inc.). Briefly, cells were lysed in LAS2 buffer (Cytoskeleton, Inc.). The lysates were centrifuged (5 min at 1000 rpm) to pellet undisrupted cells, and then 100 µl of the supernatant was ultracentrifuged at 37 °C (100,000 × g) for 1 h to separate F-actin from soluble G-actin. The F-actin pellet was solubilized by incubation in 100 μL of F-actin depolymerization buffer for 1 h. The soluble F-actin and G-actin fractions were subsequently analyzed by immunoblotting with a mouse monoclonal anti-actin antibody (Cytoskeleton, Inc.).
Representative images of three wells are shown, and the scale bar represents 500 μm. h The apoptosis assay was conducted on T2-4 cells treated with DMSO, GA-amide (0.3 μM), jas (50 nM), and jas (50 nM jas was pretreated for 12 hours) in combination with GA-amide (0.3 μM) for 4 hours. The data were presented as the mean ± SEM (n = 3) and analyzed using one-way ANOVA analysis. Statistical significance is denoted as *P <0.05, **P <0.01, and ***P <0.001.

CC(C)=CCC[C@]1(C)C=Cc2c(O)c3c(c(CC=C(C)C)c2O1)O[C@]12C(=C[C@@H]4CC1C(C)(C)O[C@@]2(C/C=C(/C)C(N)=O)C4=O)C3=O [GA-amide, gambogic amide]
tertiary tumor sphere formation (PDCs; T2-4 and T12-2, cells from secondary spheres pretreated 4 h): still suppressed | secondary tumor sphere formation potential (PDCs; pretreatment 4 h with 0.3 μM, 1 μM and 3 μM): completely abolished | tumor volume by MRI versus control [1]: significantly smaller compared to the control mice | viability of TMZ-resistant cells over time [2]: effectively reduced the viability of TMZ-resistant cells | F-actin content (F-actin): decreased content of F-actin at the cell edge

Reference: paper PMC10630452, “The tumor-enriched small molecule gambogic amide suppresses glioma by targeting WDR1-dependent cytoskeleton remodeling” (Signal Transduction and Targeted Therapy, 2023)
